The text below walks through data of ChEMBL document CHEMBL1132549, “Design and structure-activity relationship of a new class of potent VEGF receptor tyrosine kinase inhibitors” (J Med Chem, 1999).

Data set [1] can be described thus: Mouse plasma levels are obtained 24 hr after oral administration of 100 mg/kg of compound. The format is ADME, organism-based. Set-up: dose 100 mg/kg, route oral. Conditions: read-out: Plasma level.
Data set [2] is described as follows: Mouse plasma levels are obtained 6 hr after oral administration of 100 mg/kg of compound. The format is ADME, organism-based. Set-up: dose 100 mg/kg, route oral. Conditions: read-out: Plasma level.
For a further data set, the system named is HUVEC. The data set can be described thus: Inhibition of unstimulated HUVEC cell proliferation. The format is functional, cell-based. The conditions noted are these: Homo sapiens.
Data set [3] addresses Fibroblast growth factor receptor 1 (Homo sapiens, UniProt P11362).
The target of data set [4] is Vascular endothelial growth factor receptor 1 (Homo sapiens, UniProt P17948).
Vascular endothelial growth factor receptor 1, sequence (P17948 whole entry): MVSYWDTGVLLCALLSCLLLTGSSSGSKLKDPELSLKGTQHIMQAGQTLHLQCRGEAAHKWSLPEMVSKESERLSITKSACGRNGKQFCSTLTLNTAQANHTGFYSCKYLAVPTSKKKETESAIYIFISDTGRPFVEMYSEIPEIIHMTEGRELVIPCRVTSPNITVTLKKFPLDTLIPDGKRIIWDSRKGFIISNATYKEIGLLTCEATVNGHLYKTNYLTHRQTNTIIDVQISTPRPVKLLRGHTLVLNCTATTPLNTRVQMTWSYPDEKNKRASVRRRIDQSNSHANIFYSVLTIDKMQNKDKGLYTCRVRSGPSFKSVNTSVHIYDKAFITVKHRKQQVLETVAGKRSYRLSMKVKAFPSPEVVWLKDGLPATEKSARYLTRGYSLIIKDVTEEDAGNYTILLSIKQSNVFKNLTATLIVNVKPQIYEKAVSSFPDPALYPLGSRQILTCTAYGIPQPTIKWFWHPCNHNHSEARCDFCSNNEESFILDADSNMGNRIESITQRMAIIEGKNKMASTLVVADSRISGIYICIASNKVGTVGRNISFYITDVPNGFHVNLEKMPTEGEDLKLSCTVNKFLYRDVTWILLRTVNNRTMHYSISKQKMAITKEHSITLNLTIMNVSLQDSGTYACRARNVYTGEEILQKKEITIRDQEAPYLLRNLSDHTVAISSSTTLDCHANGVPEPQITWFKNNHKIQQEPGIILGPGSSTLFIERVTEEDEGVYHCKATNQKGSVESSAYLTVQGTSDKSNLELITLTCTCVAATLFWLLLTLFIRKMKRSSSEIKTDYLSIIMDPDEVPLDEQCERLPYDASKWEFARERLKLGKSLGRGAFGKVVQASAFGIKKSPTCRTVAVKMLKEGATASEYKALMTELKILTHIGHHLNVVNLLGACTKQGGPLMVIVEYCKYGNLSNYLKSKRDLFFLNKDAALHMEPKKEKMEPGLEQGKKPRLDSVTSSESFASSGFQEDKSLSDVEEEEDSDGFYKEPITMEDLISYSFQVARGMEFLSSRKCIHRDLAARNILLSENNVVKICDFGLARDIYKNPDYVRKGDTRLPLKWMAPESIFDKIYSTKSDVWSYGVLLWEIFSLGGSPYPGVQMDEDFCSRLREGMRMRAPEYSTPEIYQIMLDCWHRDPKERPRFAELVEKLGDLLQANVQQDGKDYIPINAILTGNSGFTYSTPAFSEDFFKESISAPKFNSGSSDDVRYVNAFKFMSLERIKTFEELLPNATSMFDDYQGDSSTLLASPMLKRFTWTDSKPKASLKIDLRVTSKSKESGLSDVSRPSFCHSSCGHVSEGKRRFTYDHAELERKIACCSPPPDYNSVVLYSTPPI
The target in data set [5] is Vascular endothelial growth factor receptor 2 (Homo sapiens, UniProt P35968).
Vascular endothelial growth factor receptor 2, sequence (P35968 whole entry): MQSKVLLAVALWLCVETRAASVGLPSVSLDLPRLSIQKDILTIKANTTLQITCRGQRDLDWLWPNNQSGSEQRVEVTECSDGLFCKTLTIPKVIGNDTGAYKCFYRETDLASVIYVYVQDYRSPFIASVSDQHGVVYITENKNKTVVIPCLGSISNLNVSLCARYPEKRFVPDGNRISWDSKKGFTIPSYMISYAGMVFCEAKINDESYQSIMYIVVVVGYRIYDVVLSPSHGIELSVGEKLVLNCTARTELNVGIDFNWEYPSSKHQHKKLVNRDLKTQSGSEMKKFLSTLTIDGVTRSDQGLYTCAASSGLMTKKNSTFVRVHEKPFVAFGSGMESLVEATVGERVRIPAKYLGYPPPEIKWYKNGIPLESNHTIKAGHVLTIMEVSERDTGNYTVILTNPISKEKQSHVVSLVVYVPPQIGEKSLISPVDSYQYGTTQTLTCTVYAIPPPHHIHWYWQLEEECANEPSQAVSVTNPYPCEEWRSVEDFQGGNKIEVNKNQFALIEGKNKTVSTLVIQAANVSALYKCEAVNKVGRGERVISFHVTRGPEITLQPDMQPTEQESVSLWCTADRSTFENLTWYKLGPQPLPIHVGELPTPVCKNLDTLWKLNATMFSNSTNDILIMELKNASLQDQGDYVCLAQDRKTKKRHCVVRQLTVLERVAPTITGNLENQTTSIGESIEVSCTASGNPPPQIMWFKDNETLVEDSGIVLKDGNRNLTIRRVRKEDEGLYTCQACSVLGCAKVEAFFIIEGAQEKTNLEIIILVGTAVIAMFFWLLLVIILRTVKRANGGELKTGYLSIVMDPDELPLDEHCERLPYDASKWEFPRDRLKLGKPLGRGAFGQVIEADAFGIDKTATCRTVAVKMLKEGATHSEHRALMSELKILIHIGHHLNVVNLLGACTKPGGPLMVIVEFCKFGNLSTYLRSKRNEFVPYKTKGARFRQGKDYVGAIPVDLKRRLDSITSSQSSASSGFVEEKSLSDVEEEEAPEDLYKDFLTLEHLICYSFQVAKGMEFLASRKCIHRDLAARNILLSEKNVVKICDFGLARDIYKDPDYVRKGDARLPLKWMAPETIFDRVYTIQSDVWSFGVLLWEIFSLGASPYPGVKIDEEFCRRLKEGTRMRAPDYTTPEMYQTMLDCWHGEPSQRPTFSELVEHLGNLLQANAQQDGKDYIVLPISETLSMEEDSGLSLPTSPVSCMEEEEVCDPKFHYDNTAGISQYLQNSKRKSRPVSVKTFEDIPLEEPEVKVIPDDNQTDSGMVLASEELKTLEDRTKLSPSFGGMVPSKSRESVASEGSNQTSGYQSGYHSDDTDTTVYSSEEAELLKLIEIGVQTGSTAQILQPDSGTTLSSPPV
The test system of data set [6] is Rattus norvegicus. Description: Percent inhibition of VEGF-mediated estradiol benzoate-induced rat uterus weight gain at 100 mg/kg oral dose. The format is functional.
The target in data set [7] is Fibroblast growth factor receptor (Homo sapiens, UniProt P22607+P11362+P22455+P21802). Conditions: huvec.
In data set [8] the target is Vascular endothelial growth factor receptor (Homo sapiens, UniProt P17948+P35916+P35968). Conditions: huvec.
The subject of data set [9] is Rattus norvegicus. The data set can be described thus: Percent inhibition of VEGF-mediated estradiol benzoate-induced rat uterus weight gain at 100 mg/kg oral dose; NA is Not Active. The format is functional, organism-based. Set-up: dose 100 mg/kg.
The subject of data set [10] is Rattus norvegicus. Description: Percent inhibition of VEGF-mediated estradiol benzoate-induced rat uterus weight gain at 60 mg/kg oral dose. The format is functional.

Active and inactive are the calls of the source. No cut-off for these calls is given here.

Fibroblast growth factor receptor 1, sequence (P11362 whole entry): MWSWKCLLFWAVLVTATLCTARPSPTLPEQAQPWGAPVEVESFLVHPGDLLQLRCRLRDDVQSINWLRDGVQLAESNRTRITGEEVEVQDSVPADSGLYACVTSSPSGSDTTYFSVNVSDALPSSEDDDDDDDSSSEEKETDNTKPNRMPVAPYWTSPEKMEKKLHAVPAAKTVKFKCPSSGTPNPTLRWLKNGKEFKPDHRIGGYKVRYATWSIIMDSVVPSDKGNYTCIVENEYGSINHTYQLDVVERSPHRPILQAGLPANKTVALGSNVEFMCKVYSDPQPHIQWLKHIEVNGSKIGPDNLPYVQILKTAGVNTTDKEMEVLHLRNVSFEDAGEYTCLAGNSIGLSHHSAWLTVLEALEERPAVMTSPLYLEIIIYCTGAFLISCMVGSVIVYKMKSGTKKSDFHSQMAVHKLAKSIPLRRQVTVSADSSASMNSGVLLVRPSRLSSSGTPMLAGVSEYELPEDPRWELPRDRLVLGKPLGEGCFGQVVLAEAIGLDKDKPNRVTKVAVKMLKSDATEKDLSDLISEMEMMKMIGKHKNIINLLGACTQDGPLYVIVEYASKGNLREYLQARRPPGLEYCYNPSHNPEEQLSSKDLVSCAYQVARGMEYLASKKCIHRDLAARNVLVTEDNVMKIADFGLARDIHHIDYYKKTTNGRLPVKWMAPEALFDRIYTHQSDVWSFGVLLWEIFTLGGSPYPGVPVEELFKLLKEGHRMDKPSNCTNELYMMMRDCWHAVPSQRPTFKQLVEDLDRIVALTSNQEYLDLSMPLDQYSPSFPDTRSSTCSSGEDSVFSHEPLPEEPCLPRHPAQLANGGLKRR

Consider `COc1cc2c(Nc3ccc(Cl)cc3F)ncnc2cc1OCCn1ccnn1`, for which the concentration at 24 h in [1] was found to be 10 µM. Moreover, the concentration at 6 h in data set [2] came to 49 µM. Moreover, the 50% inhibitory concentration (IC50) (in general, the concentration that gives 50% inhibition) in the data set with HUVEC came to 5000 nM.

For `COc1cc2c(Nc3ccc(Cl)cc3F)ncnc2cc1OCCn1ccnc1`, the concentration at 24 h in data set [1] is less than 0.1 µM. For the same compound, the concentration at 6 h in [2] came out at 11 µM.

`COCC(=O)Nc1cc2ncnc(Nc3cc(O)c(C)cc3F)c2cc1OC`: the values for the IC50 in data set [3], in [4] and in data set [5] were more than 100000 nM, 300 nM and 300 nM, respectively.

As for `COc1cc2c(Nc3ccc(Cl)cc3F)ncnc2cc1OC1CCN(C)CC1`, the figures for the IC50 in data set [3], in data set [4] and in [5] were 40000 nM, 15000 nM and 1500 nM, respectively.

With `COCCOc1cc2ncnc(Nc3ccc(Cl)cc3F)c2cc1OC`, the concentration at 24 h in data set [1] is less than 0.1 µM. The concentration at 6 h in [2] is 12 µM. Further, the inhibition in vivo (in general, the percentage by which the read-out fell short of the control) at 100 mg/kg in the data set with Rattus norvegicus [6] is 31%. For the same compound, the values for the IC50 in data set [3], in [4] and in [5] were 27000 nM, 400 nM and 7 nM, respectively.

In the case of `COc1cc2ncnc(Nc3ccc(I)cc3Cl)c2cc1OC`, in data set [4], the IC50 is more than 33000 nM.

Take `COc1cc2c(Nc3ccc(C#N)cc3F)ncnc2cc1OCCn1ccnn1`: the IC50 with HUVEC is more than 10000 nM; in data set [3], 45000 nM; in data set [4] it was 8100 nM; in data set [5] it was 300 nM; in data set [7] it was 3000 nM; in [8], 600 nM.

On to `COCCOc1cc2nncc(Nc3cc(O)c(Cl)cc3F)c2cc1OC`, for which the IC50 in data set [4] is 50 nM.

Consider `COc1cc2ncnc(Nc3ccc(F)cc3F)c2cc1OC`, for which the values for the IC50 in data set [3], in [4] and in [5] were 58000 nM, 22000 nM and 2900 nM, respectively.

Regarding `COc1cc2c(Nc3ccc(Br)cc3F)ncnc2cc1OCCn1ccnn1` [ZD-4190 FREE BASE], the IC50 is more than 10000 nM in the data set on HUVEC; more than 100000 nM in data set [3]; 700 nM in data set [4]; 30 nM in data set [5]; 1500 nM in data set [7].

On to `COc1cc2c(Nc3ccc(Cl)cc3F)ncnc2cc1OCCOCCN1CCOCC1`, for which the concentration at 24 h in [1] was less than 0.1 µM. Moreover, the concentration at 6 h in data set [2] came to 11 µM. Further, the IC50 in data set [3] worked out at 20000 nM; in data set [4] it was 500 nM; in data set [5], 60 nM.

`COCC(=O)Nc1cc2ncnc(Nc3ccc(Cl)cc3F)c2cc1OC`: the IC50 in data set [3] is more than 50000 nM; in data set [4] it was more than 100000 nM; in data set [5] it was more than 100000 nM.

`COCCOc1cc2ncnc(Nc3cc(O)c(Cl)cc3F)c2cc1OC`: in [1], the concentration at 24 h is less than 0.1 µM. For the same compound, the concentration at 6 h in data set [2] is less than 0.1 µM. In addition, the IC50 in the data set on HUVEC is 5000 nM; in [3], 7400 nM; in [4], less than 2 nM; in data set [5] it was less than 2 nM; in data set [7], 800 nM; in [8], 4 nM.

`COCCOc1ccc2c(Nc3ccc(Cl)cc3F)ncnc2c1`: the IC50 in data set [3] worked out at 16000 nM; in data set [4] it was 1500 nM.

As to `COc1cc2ncnc(Nc3ccc(F)c(Cl)c3)c2cc1OC`, the half-inhibitory concentration (IC50) in data set [3] was more than 100000 nM; in data set [4], more than 100000 nM; in data set [5] it was 800 nM.

The compound `COc1cc2ncnc(Nc3ccc(I)cc3F)c2cc1OC` gave an IC50 in data set [4] of 800 nM.

Take `COc1cc2c(Nc3ccc(Cl)cc3F)ncnc2cc1OCCN(C)c1ccncc1`: the IC50 in [3] stood at 1600 nM; in data set [4], 100 nM; in data set [5], 6 nM.

For `COc1cc2c(Nc3ccc(Cl)cc3F)ncnc2cc1OCc1ccncc1`, the concentration for half-maximal inhibition (IC50) in data set [3] is more than 33000 nM; in [4], 1200 nM; in data set [5] it was 60 nM.

Consider `COCCOc1cc2ncnc(Nc3cccc(O)c3)c2cc1OC`, for which the inhibition entry in the data set on Rattus norvegicus [9] was “inactive”. Besides, the IC50 was 7000 nM in data set [3], 30 nM in data set [4] and less than 5 nM in data set [5].

As to `COc1cc2ncnc(Nc3cccc(O)c3)c2cc1OC`, the figures for the IC50 in data set [3] and in data set [4] were 11000 nM and 200 nM, respectively.

Consider `COc1cc2ncnc(Nc3ccc(Cl)cc3F)c2cc1OC`, for which the inhibition in vivo at 100 mg/kg with Rattus norvegicus [6] stood at 34%. For the same compound, the IC50 was 7000 nM in data set [3] and 100 nM in data set [5].

Take `COc1cc2ncnc(Nc3cc(O)c(C)cc3F)c2cc1OC`: the concentration at 24 h in data set [1] is less than 0.2 µM. For the same compound, the concentration at 6 h in data set [2] is less than 0.2 µM. The compound also showed an inhibition in vivo at 60 mg/kg in the data set with Rattus norvegicus [10] of 80%. Moreover, the IC50 turned out to be 2500 nM in [3], 30 nM in data set [4] and 3 nM in data set [5].

Take `COc1cc2ncnc(Nc3ccccc3F)c2cc1OC`: the IC50 was more than 100000 nM in [3], 26000 nM in [4] and 2700 nM in data set [5].

As for `COc1cc2c(Nc3ccc(Cl)cc3F)ncnc2cc1OCCN1CCOCC1`, the IC50 in [3] came to 19000 nM; in data set [4], 1100 nM; in data set [5] it was 40 nM.

As to `COc1cc2ncnc(Nc3ccc(Cl)cc3)c2cc1OC`, the half-maximal inhibitory concentration (IC50) in data set [3] was more than 100000 nM; in data set [4], 11000 nM; in data set [5], 800 nM.

On to `COc1cc2c(Nc3ccc(Cl)cc3F)ncnc2cc1OCCCCN1CCOCC1`, for which the IC50 was found to be 1500 nM in data set [3], 300 nM in data set [4] and 40 nM in data set [5].

`COCCOc1cc2nncc(Nc3ccc(Cl)cc3F)c2cc1OC` registered an IC50 in data set [4] of 63000 nM.

With `COCCOc1cc2ncnc(Nc3ccc(Cl)cc3F)c2cc1OCCOC`, the IC50 in data set [3] is more than 100000 nM; in data set [4], 900 nM; in data set [5] it was 60 nM.

With `COc1cc2c(Nc3ccc(Cl)cc3F)ncnc2cc1OCCCN1CCOCC1`, the concentration at 24 h in data set [1] worked out at 0.8 µM. Also, in data set [2], the concentration at 6 h was found to be 4 µM. In addition, at 100 mg/kg the inhibition in vivo in the data set on Rattus norvegicus [6] was 59%. In addition, the IC50 is 6700 nM in data set [3] and 9 nM in data set [5].

With `COCCOc1cc2nccc(Nc3cc(O)c(Cl)cc3F)c2cc1OC`, the values for the IC50 in data set [3], in data set [4] and in [5] were 1400 nM, 3 nM and less than 2 nM, respectively.

As for `COc1cc2c(Nc3c(F)cc(Br)cc3F)ncnc2cc1OCCn1ccnn1`, the half-inhibitory concentration (IC50) in the data set with HUVEC amounted to 1000 nM; in data set [4] it was 800 nM; in data set [5] it was 40 nM; in [7], 100 nM; in data set [8] it was 20 nM.

As to `COCCOc1cc2nccc(Nc3ccc(Cl)cc3F)c2cc1OC`, the concentration at 6 h in data set [2] was determined as 3 µM. Also, the values for the IC50 in data set [3], in data set [4] and in data set [5] were 9300 nM, 300 nM and 10 nM, respectively.
